Measurements reported in patent US20060069132A1, “Azolecarboxamide herbicides” (priority 2004, published 2006).

Legend:
[1] = tested on: morningglory; test: Test C pre-/postemergence herbicide test; assay type: in vivo, Ipomoea coccinea; parameters: key to Plant response rating, Morningglory: 0 = no effect, 100 = complete control; conditions: preemergence
Summary of the method: (§1)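 Visual injury scores run from 0 (no effect) to 100 (complete control), assessed relative to untreated controls 12 to 14 days after treatment in the greenhouse. Chemicals were formulated in a non-phytotoxic solvent mixture with surfactant and applied to soil after planting or to emerged plants at the 1- to 4-leaf stage.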

[2] = tested on: woolly cupgrass; test: Test C pre-/postemergence herbicide test; assay type: in vivo, Eriochloa villosa; conditions: preemergence
Summary of the method: as §1

[3] = tested on: goosegrass; test: Test C pre-/postemergence herbicide test; assay type: in vivo, Eleusine indica; conditions: preemergence
Summary of the method: as §1

[4] = tested on: kochia; test: Test C pre-/postemergence herbicide test; assay type: in vivo, Kochia scoparia; conditions: preemergence
Summary of the method: as §1

[5] = tested on: barnyardgrass; test: Test C flooded paddy test; assay type: in vivo, Echinochloa crus-galli
Summary of the method: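 Scoring by eye, 12–14 days post-treatment, greenhouse-held plants vs. controls; 0 no effect, 100 complete control. Sprayed at 1–4 leaves (2–18 cm); paddy barnyardgrass at 2 leaves, flooded.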

[6] = tested on: yellow nutsedge; test: Test C pre-/postemergence herbicide test; assay type: in vivo, Cyperus esculentus; conditions: preemergence
Summary of the method: as §1

[7] = tested on: velvetleaf; test: Test C pre-/postemergence herbicide test; assay type: in vivo, Abutilon theophrasti; conditions: preemergence
Summary of the method: as §1

[8] = tested on: corn; test: Test C pre-/postemergence herbicide test; assay type: in vivo, Zea mays; conditions: preemergence
Summary of the method: as §1

[9] = tested on: cocklebur; test: Test C pre-/postemergence herbicide test; assay type: in vivo, Xanthium strumarium; conditions: for Plant response rating, Cocklebur: preemergence
Summary of the method: as §1

[10] = tested on: bermudagrass; test: Test C pre-/postemergence herbicide test; assay type: in vivo, Cynodon dactylon; conditions: for Plant response rating, Bermudagrass: preemergence
Summary of the method: as §1

[11] = tested on: soybean; test: Test C pre-/postemergence herbicide test; assay type: in vivo, Glycine max; conditions: preemergence
Summary of the method: as §1

[12] = tested on: giant foxtail; test: Test C pre-/postemergence herbicide test; assay type: in vivo, Setaria faberi; conditions: preemergence
Summary of the method: as §1

[13] = 125 g ai/ha, scale 0 (no effect) to 100 (complete control), visual, 12 to 14 days
[14] = 500 g ai/ha, scale 0 to 100 (0 no effect, 100 complete control), visual, 12 to 14 days
[15] = Preemergence, 500 g ai/ha, scale 0 to 100, 0 no effect, 100 complete control

Q: What does the source list for `CCn1nc(C2(C)CC2)cc1C(=O)Nc1cc(C(=O)N(C)C)ccc1F` [Compound 299]?
A: Plant response rating, Morningglory ([1]; 62 g ai/ha, scale 0 to 100): 5; Plant response rating, Morningglory [1, 13]: 75; Plant response rating, Morningglory ([1]; 250 g ai/ha, scale 0-100): 100; Plant response rating, Morningglory [1, 14]: 100; Plant response rating, Cupgrass, Woolly ([2]; 62 g ai/ha, scale 0 to 100): 50; Plant response rating, Cupgrass, Woolly [2, 13]: 70; Plant response rating, Cupgrass, Woolly ([2]; 250 g ai/ha, scale 0-100): 90; Plant response rating, Cupgrass, Woolly [2, 14]: 100; Plant response rating, Goosegrass ([3]; 62 g ai/ha, scale 0 to 100): 100; Plant response rating, Goosegrass [3, 13]: 100; Plant response rating, Goosegrass ([3]; 250 g ai/ha, scale 0-100): 100; Plant response rating, Goosegrass [3, 14]: 100; Plant response rating, Kochia ([4]; 62 g ai/ha, scale 0 to 100): 100; Plant response rating, Kochia [4, 13]: 100; Plant response rating, Kochia ([4]; 250 g ai/ha, scale 0-100): 100; Plant response rating, Kochia [4, 14]: 100; Barnyardgrass plant response rating ([5]; 62 g ai/ha, scale 0 to 100 (0 no effect, 100 complete control)): 85; Barnyardgrass plant response rating ([5]; 125 g ai/ha, scale 0 to 100 (0 no effect, 100 complete control)): 85; Barnyardgrass plant response rating ([5]; 250 g ai/ha, scale of 0 to 100, 0 is no effect, 100 is complete control): 95; Plant response rating, Barnyardgrass ([5]; 500 g ai/ha, visual rating after 12 to 14 days, scale 0 to 100 (0 no effect, 100 complete control)): 95; Plant response rating, Nutsedge, Yellow ([6]; 62 g ai/ha, scale 0 to 100): 40; Plant response rating, Nutsedge, Yellow [6, 13]: 50; Plant response rating, Nutsedge, Yellow ([6]; 250 g ai/ha, scale 0-100): 60; Plant response rating, Nutsedge, Yellow [6, 14]: 80; Plant response rating, Velvetleaf ([7]; 62 g ai/ha, scale 0 to 100): 5; Plant response rating, Velvetleaf ([7]; 250 g ai/ha, scale 0-100): 100; Plant response rating, Velvetleaf [7, 14]: 100; Plant response rating, Corn [8, 13]: 25; Plant response rating, Corn ([8]; 250 g ai/ha, scale 0-100): 60; Plant response rating, Corn [8, 14]: 60; Plant response rating, Cocklebur ([9]; 62 g ai/ha, scale 0 to 100): 0; Plant response rating, Cocklebur [9, 13]: 40; Plant response rating, Cocklebur ([9]; 250 g ai/ha, scale 0-100): 80; Cocklebur plant response rating [9, 15]: 95; Plant response rating, Bermudagrass ([10]; 62 g ai/ha, scale 0 to 100, 0 no effect, 100 complete control): 100; Plant response rating, Bermudagrass [10, 13]: 100; Plant response rating, Bermudagrass ([10]; 250 g ai/ha, scale 0-100): 100; Bermudagrass plant response rating [10, 15]: 100; Plant response rating, Soybean ([11]; 62 g ai/ha, scale 0 to 100): 55; Plant response rating, Soybean ([11]; 250 g ai/ha, scale 0-100): 90; Plant response rating, Soybean [11, 14]: 95; Plant response rating, Foxtail, Giant ([12]; 62 g ai/ha, scale 0 to 100): 100; Plant response rating, Foxtail, Giant [12, 13]: 100; Plant response rating, Foxtail, Giant ([12]; 250 g ai/ha, scale 0-100): 100; Plant response rating, Foxtail, Giant [12, 14]: 100
